Active and inactive are the calls of the source.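 The calls were made as follows: active = half-maximal concentration at most 10 µM with response span of at least 30% and a trustworthy curve fit; inactive = the rest.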
Target: Cell division control protein 42 homolog (Homo sapiens) (UniProt P60953)
Experiment: constitutively active Cdc42 guanine nucleotide binding blockers – biochemical, activated mutant, bead multiplex, flow cytometry, round 2, selectivity assay for Rab7 inhibitor project, SAR follow-up (AID 588624)
Details: GST-Cdc42 act beads, Bodipy-GTP binding; for percent response of GTP binding: at 100 µM (top of the series)

Sequence of Cell division control protein 42 homolog (Homo sapiens) (P60953 whole entry, looked up): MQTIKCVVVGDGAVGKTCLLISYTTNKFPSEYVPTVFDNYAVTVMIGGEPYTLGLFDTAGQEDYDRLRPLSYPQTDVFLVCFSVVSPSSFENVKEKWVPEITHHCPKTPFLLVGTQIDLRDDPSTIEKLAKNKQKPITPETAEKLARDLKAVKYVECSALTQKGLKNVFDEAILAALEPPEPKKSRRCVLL

Row | EC50 [nM] | percent response of GTP binding | Structure (SMILES)
1 | 692 | – | CC1(C)Cc2c(sc(NC(=S)NC(=O)c3ccc(F)cc3)c2C(=O)O)CO1
2 | – | inactive | COc1ccccc1C(=O)NC(=S)Nc1sc2c(c1C(=O)O)CC(C)(C)OC2
3 | – | inactive | Cc1cccc(C(=O)NC(=S)Nc2sc3c(c2C(=O)O)CC(C)(C)OC3)c1
4 | – | inactive | Cc1ccc(C(=O)NC(=S)Nc2sc3c(c2C(=O)O)CC(C)(C)OC3)cc1
5 | 32100 | – | CC1(C)Cc2c(sc(NC(=S)NC(=O)c3ccc(Br)cc3)c2C(=O)O)CO1
6 | – | inactive | COc1ccc(C(=O)NC(=S)Nc2sc3c(c2C(=O)O)CC(C)(C)OC3)cc1
7 | 1310 | – | COc1cccc(C(=O)NC(=S)Nc2sc3c(c2C(=O)O)CC(C)(C)OC3)c1
8 | 1350 | – | Cc1ccccc1C(=O)NC(=S)Nc1sc2c(c1C(=O)O)CC(C)(C)OC2
9 | 29500 | – | CC1(C)Cc2c(sc(NC(=S)NC(=O)c3ccccc3Br)c2C(=O)O)CO1
10 | 5830 | – | CC1(C)Cc2c(sc(NC(=S)NC(=O)c3cccc(F)c3)c2C(=O)O)CO1
11 | 40600 | – | CC1(C)Cc2c(sc(NC(=S)NC(=O)c3cccc(Br)c3)c2C(=O)O)CO1

Second part, the compound before the results:

Row | Structure (SMILES) | EC50 [nM] | percent response of GTP binding
12 | CC1(C)Cc2c(sc(NC(=S)NC(=O)c3ccccc3F)c2C(=O)O)CO1 | 2090 | –
13 | CCC1(C)Cc2c(sc(NC(=S)NC(=O)c3ccccc3)c2C(=O)O)CO1 (centres undefined) | 177 | –
14 | CC1(C)Cc2c(sc(NC(=S)NC(=O)c3ccco3)c2C(=O)O)CO1 | 326 | –
15 | CC1(C)CCc2sc(NC(=S)NC(=O)c3ccccc3)c(C(=O)O)c2C1 | – | inactive
16 | CC1(C)Cc2c(sc(NC(=S)NC(=O)c3cccs3)c2C(=O)O)CO1 | – | inactive
17 | CC1(C)Cc2c(sc(NC(=O)NC(=O)c3ccccc3)c2C(=O)O)CO1 | – | inactive
18 | O=C(NC(=S)Nc1sc2c(c1C(=O)O)CCOC2)c1ccccc1 | 12500 | inactive
19 | CC1Cc2c(sc(NC(=S)NC(=O)c3ccccc3)c2C(=O)O)CO1 (centres undefined) | 7980 | –
20 | CC1(C)Cc2c(sc(NC(=S)Nc3ccccc3)c2C(=O)O)CO1 | – | inactive
21 | CC1(C)Cc2c(sc(NC(=S)NC(=O)C3CCCCC3)c2C(=O)O)CO1 | 3130 | –
22 | CC(C)(C)C1Cc2c(sc(NC(=S)NC(=O)c3ccccc3)c2C(=O)O)CO1 (centres undefined) | 935 | –
23 | O=C(NC(=S)Nc1sc2c(c1C(=O)O)CC1(CCCC1)OC2)c1ccccc1 | – | inactive

Source: PubChem BioAssay AID588624 (NMMLSC, 2011)
